# Assay results from paper PMC7619385 (ACS infectious diseases, 2025).
# Read-outs that look alike come from different tables or passages of the source.
# What was measured:
# [1] = target: T1, LmxCLK1 (Leishmania mexicana, UniProt E9AMP2); experiment: biochemical; format: binding
# T1 sequence (E9AMP2 1-422): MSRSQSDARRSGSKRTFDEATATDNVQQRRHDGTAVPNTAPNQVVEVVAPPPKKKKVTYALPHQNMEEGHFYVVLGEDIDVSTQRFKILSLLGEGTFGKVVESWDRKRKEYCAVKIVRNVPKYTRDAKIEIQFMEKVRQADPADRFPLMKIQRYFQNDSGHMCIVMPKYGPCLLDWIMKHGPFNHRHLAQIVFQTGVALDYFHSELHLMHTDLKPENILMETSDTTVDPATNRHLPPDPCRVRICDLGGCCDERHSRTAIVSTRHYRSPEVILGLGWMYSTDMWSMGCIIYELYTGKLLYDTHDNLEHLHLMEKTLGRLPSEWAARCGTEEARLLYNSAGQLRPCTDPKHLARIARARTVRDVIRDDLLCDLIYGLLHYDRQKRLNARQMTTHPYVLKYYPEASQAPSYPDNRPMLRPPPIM
# [2] = target: NLuc::LmxCLK1 (Leishmania mexicana, UniProt E9AMP2); experiment: cell-based; format: cell-based; conditions: for Target occupancy Run 1 / Target occupancy Run 2 / Target occupancy Average: 10 µM compound, tracer SV366, promastigotes; for Target occupancy Average: mean of two experiments
# Method: All compounds were tested at a fixed concentration of 10 µM to enable direct comparison of their target occupancy in live cells.
# Serially diluted probes (5 µL) were added to 85 µL of cells in culture media or 85 µL of purified protein. Final well volumes were adjusted to 100 µL with sterile Opti-MEM™ I Reduced Serum Medium (Thermo-Scientific) – for wells containing cells; or Kinase Buffer - for wells containing purified protein. For tracer displacement assays, samples were prepared as above, but final volume was brought to 100 µL by addition of vehicle or serially-diluted test compounds. Final DMSO concentration in these assays was 1%. […] Light emissions at 460+10 nm (BRET donor) and at 610+20 nm (BRET acceptor) were sequentially recorded (integration time = 0.5 s, gain = 3600) using a luminometer (BMG LABTECH Clariostar or Biotek Synergy HT). BRET values are reported in milli-BRET (mBRET) units (mBU), obtained by dividing the acceptor luminescence by the donor luminescence and multiplying the result by a factor of 1,000. BRET values were converted to blank-corrected probe occupancies (%) according to equation [1]: (1) Probeoccupancy(%)=X−Z/Y−Z×100 where X = mBRET value in the presence of the test compound and the probe, Y = mBRET value in the presence of probe only, and Z = mBRET value in the absence of probe and test compound. […]
# [3] = DSF, 10 µM compound, 2 µM LmxCLK1, Run 1
# [4] = DSF, 10 µM compound, 2 µM LmxCLK1, Run 2
# [5] = DSF, 10 µM compound, 2 µM LmxCLK1, mean of two runs
# [6] = DSF, 10 µM compound, 2 µM LmxCLK1, Run 1, read-out: ΔTm Run 1
# [7] = DSF, 10 µM compound, 2 µM LmxCLK1, Run 2, read-out: ΔTm Run 2
# [8] = DSF, 10 µM compound, 2 µM LmxCLK1, mean of two runs, read-out: ΔTm Average
# [9] = read-out: Target occupancy Average
# [10] = read-out: Target occupancy Run 1
# [11] = read-out: Target occupancy Run 2
Compound,"ΔTm Run 1 [1, 3]","ΔTm Run 2 [1, 4]","ΔTm Average [1, 5]",Target occupancy Run 1 [2],Target occupancy Run 2 [2],Target occupancy Average [2],"ΔTm at 10 µM [1, 6]","ΔTm at 10 µM [1, 7]","ΔTm at 10 µM [1, 8]","receptor occupancy at 10 µM [2, 9]","receptor occupancy at 10 µM [2, 10]","receptor occupancy at 10 µM [2, 11]",ΔTm Average [1],ΔTm Run 1 [1],ΔTm Run 2 [1]
CNC(=O)c1cc(Oc2ccc(NC(=O)Nc3ccc(Cl)c(C(F)(F)F)c3)c(F)c2)ccn1 [Regorafenib (BAY 73-4506)],0.1 °C,-0.3 °C,-0.1 °C,-4.0%,-5.3%,-4.6%,–,–,–,–,–,–,–,–,–
COc1cc(Nc2ncc(F)c(Nc3ccc4c(n3)N(COP(=O)(O)O)C(=O)C(C)(C)O4)n2)cc(OC)c1OC [Fostamatinib (R788)],0.2 °C,0.2 °C,0.2 °C,0.9%,-17.9%,-8.5%,–,–,–,–,–,–,–,–,–
COc1cc2ncnc(Oc3cccc(NC(=O)Nc4cc(C(C)(C)C(F)(F)F)on4)c3)c2cc1OC [CEP-32496],–,–,–,–,–,–,-0.4 °C,-0.2 °C,-0.3 °C,-3.7%,-2.2%,-5.2%,–,–,–
CC[C@H](Nc1ncnc2[nH]cnc12)c1nc2cccc(F)c2c(=O)n1-c1ccccc1 [CAL-101 (Idelalisib)],-0.2 °C,-0.2 °C,-0.2 °C,0.2%,0.1%,0.1%,–,–,–,–,–,–,–,–,–
N[C@@H]1CCCN(c2c(/C=C3\SC(=O)NC3=O)cccc2-c2ccccc2)C1 [AZD1208],0.1 °C,-0.4 °C,-0.1 °C,5.0%,-7.9%,-1.4%,–,–,–,–,–,–,–,–,–
O=C(c1ccc(Nc2nccc(-c3cc4ccccc4s3)n2)cc1)N1CCC(N2CCCC2)CC1 [IKK-16 (IKK Inhibitor VII)],1.9 °C,1.6 °C,1.8 °C,10.2%,-10.2%,0.0%,–,–,–,–,–,–,–,–,–
O=C(O)[C@]1(Cc2cccc(Nc3nccs3)n2)CC[C@@H](Oc2cccc(Cl)c2F)CC1 [MK-5108 (VX-689)],-0.1 °C,-0.2 °C,-0.1 °C,-2.8%,1.0%,-0.9%,–,–,–,–,–,–,–,–,–
CN(C[C@@H]1COCCO1)S(=O)(=O)Nc1ccc2ccc3ncc(-c4cnn(C)c4)cc3c(=O)c2c1 [MK-2461],–,–,–,–,–,–,0 °C,0.2 °C,0.1 °C,-2.7%,-9.3%,3.8%,–,–,–
COc1cccc(-c2cc(=O)c3ccccc3o2)c1N [PD98059],0.0 °C,-0.2 °C,-0.1 °C,-16.6%,-0.7%,-8.6%,–,–,–,–,–,–,–,–,–
UNC-AA-1-0013 (AAK1),–,–,–,3.7%,-11.6%,-4.0%,–,–,–,–,–,–,-0.2,-0.2,-0.3
COc1cc(Nc2ncc(F)c(Nc3ccc4c(n3)NC(=O)C(C)(C)O4)n2)cc(OC)c1OC [R406],–,–,–,6.2%,-5.8%,0.2%,–,–,–,–,–,–,0.4 °C,0.4 °C,0.3 °C
Cc1[nH]c(/C=C2\C(=O)Nc3ccc(S(=O)(=O)N(C)c4cccc(Cl)c4)cc32)c(C)c1C(=O)N1CCN(C)CC1 [SU11274],–,–,–,–,–,–,-0.1 °C,-0.2 °C,-0.2 °C,-6.7%,-7.3%,-6%,–,–,–
Cn1cc(C2=C(c3cn(C4CCN(Cc5ccccn5)CC4)c4ccccc34)C(=O)NC2=O)c2ccccc21 [Enzastaurin (LY317615)],0.1 °C,-0.2 °C,0.0 °C,2.6%,-1.9%,0.3%,–,–,–,–,–,–,–,–,–
"CCOc1cc2ncc(C#N)c(Nc3ccc(F)c(Cl)c3)c2cc1NC(=O)/C=C/CN(C)C [Pelitinib (EKB-569), Pelitinib]",–,–,–,–,–,negligible target engagement,9.1 °C,12.5 °C,10.8 ± 1.7 °C,–,–,–,–,–,–
N#Cc1c(O)c2c(-c3ccc(-c4ccccc4O)cc3)csc2[nH]c1=O [A-769662],–,–,–,1.2%,-1.3%,0.0%,–,–,–,–,–,–,-0.1,-0.1,0 °C
Cc1c(Cn2c(C)nc3c(C(=O)O)cc(N4CCOCC4)cc32)cccc1C(F)(F)F [GSK2636771],–,–,–,–,–,–,0.2 °C,0.1 °C,0.1 °C,-2.2%,2.9%,-7.3%,–,–,–
COc1cc2ncnc(Nc3ccc(F)c(Cl)c3)c2cc1NC(=O)/C=C/CN1CCCCC1 [Dacomitinib (PF299804)],-0.4 °C,-0.5 °C,-0.4 °C,1.4%,-14.2%,-6.4%,–,–,–,–,–,–,–,–,–
C=CC(=O)Nc1ccc2ncnc(Nc3ccc(OCc4cccc(F)c4)c(Cl)c3)c2c1 [AST-1306],–,–,–,–,–,–,-0.1 °C,-0.4 °C,-0.2 °C,-9.2%,-7.7%,-10.7%,–,–,–
O=C1c2ccc(Nc3ccc(F)cc3F)cc2CCc2ccc(OC[C@H](O)CO)cc21 [Skepinone-L],–,–,–,–,–,–,0 °C,0.1 °C,0.1 °C,-1.4%,6.5%,-9.2%,–,–,–
Cc1ccc2nc(NCCN)c3ncc(C)n3c2c1 [BMS-345541],–,–,–,–,–,–,-0.1 °C,-0.3 °C,-0.2 °C,-1.1%,7.2%,-9.4%,–,–,–
CN1CC[C@H](c2c(O)cc(O)c3c(=O)cc(-c4ccccc4Cl)oc23)[C@H](O)C1.Cl [Flavopiridol HCl],0.1 °C,-0.1 °C,0.0 °C,1.6%,-3.3%,-0.8%,–,–,–,–,–,–,–,–,–
O=C(Nc1ccc(OC(F)(F)F)cc1)c1sccc1NCc1ccnc2ccccc12 [OSI-930],–,–,–,–,–,–,0.4 °C,0 °C,0.2 °C,0.1%,-0.4%,0.6%,–,–,–
CN1CCCN(C(=O)c2cccc(-c3ccc(/C=C4/C(=O)Nc5ccc(Cl)cc54)o3)c2)CC1.Cl [CX-6258 HCl],0.1 °C,-0.4 °C,-0.1 °C,-0.5%,-26.8%,-13.6%,–,–,–,–,–,–,–,–,–
Cc1ccc(NC(=O)c2cccc(N(C)C)c2)cc1NC(=O)c1ccc(O)cc1 [ZM 336372],-0.1 °C,-0.5 °C,-0.3 °C,-4.5%,-6.5%,-5.5%,–,–,–,–,–,–,–,–,–
COc1cccc2cc(-c3nc([C@H]4CC[C@H](C(=O)O)CC4)n4ncnc(N)c34)[nH]c12 [OSI-027],–,–,–,–,–,–,0.1 °C,-0.4 °C,-0.2 °C,-8.9%,5.5%,-23.2%,–,–,–
CNC(=O)c1cccc(-c2ccc3c(N4CCOC[C@@H]4C)nc(N4CCOC[C@@H]4C)nc3n2)c1 [AZD2014],–,–,–,–,–,–,0.3 °C,-0.3 °C,0 °C,-1.4%,8.9%,-11.6%,–,–,–
O=C(NCc1ccccc1)c1csc(Nc2ccncn2)n1 [Thiazovivin],0.3 °C,0.0 °C,0.2 °C,-3.6%,1.5%,-1.1%,–,–,–,–,–,–,–,–,–
